Data from patent US10828515B2, “Compositions containing phenolic compounds having synergistic antioxidant benefits” (L'OREAL, priority 2016, dated 2020).

assay: oxygen radical absorbance capacity assay (ORAC); format: biochemical; settings: individual antioxidant compounds
Experimental: Synergism was determined by comparing the antioxidant capacities of combinations of components measured by oxygen radical absorbance capacity assay (ORAC) with expected or additive values of the individual compounds. As reflected in the Examples below, the expected ORAC is the combined (additive) antioxidant capacity of each individual antioxidant compound in the association, measured individually and assuming that each is functioning independently. The expected ORAC value of a certain association can be calculated by using the following equation: ORAC (total)=sum of ORAC (compound n, individually) multiplied by the Percentage (compound n, of use in a cosmetic composition), n=1, 2, 3 . . . .
The ORAC assay measures the oxidative degradation of the fluorescent probe (fluorescein) after being mixed with free radical generators such as azo-initiator compounds (2,2′-Azobis(2-amidinopropane)dihydrochloride, AAPH). Azo-initiators are considered to produce the peroxyl radical by heating, which damages the fluorescent molecule, resulting in the loss of fluorescence. Antioxidants are considered to protect the fluorescent molecule from the oxidative degeneration. By quantifying the decay of fluorescence using a fluorometer, the degree of protection is determined comparing with a standard control antioxidant Trolox. The result is expressed in μMol equivalent of Trolox.

Row | Structure (SMILES) | ORAC
1 | OC[C@H]1O[C@@H](Oc2cc(O)cc(/C=C/c3ccc(O)cc3)c2)[C@H](O)[C@@H](O)[C@@H]1O [Polydatin] | 20159 μmolTolox/g
2 | Cc1c(C)c2c(c(C)c1O)CCC(C)(C(=O)O)O2 (stereo not drawn) [Trolox (VitE), Trolox] | 1000 μmolTolox/g
3 | O=C(O)[C@H]1O[C@@H](Oc2cc3oc(-c4ccccc4)cc(=O)c3c(O)c2O)[C@H](O)[C@@H](O)[C@@H]1O [baicalin] | 4759 μmolTolox/g
